Data: ChEMBL document CHEMBL1201862, “PubChem BioAssay data set” (2004)
The source made the active and inactive calls.

Legend:
[1] = viability of uninfected HEp-2 cells – cell-based, HTS, cytotoxicity control for RSV inhibitor project, dose response (AID 2410); type: functional; details: human respiratory syncytial virus
[2] = molecular target: Luciferin 4-monooxygenase (Photinus pyralis, UniProt P08659); assay: inhibition of purified Photinus pyralis luciferase – biochemical, luminescence, dose response (AID 1891)
[3] = Luminescence Cell-Based Dose Confirmation HTS to Identify Inhibitors of Platelet Dense Granule Release. [Related pubchem assays: 1663 (Primary HTS), 1678 (Summary of Project)]; type: functional
[4] = molecular target: T1, Rac GTPase-activating protein 1 (Homo sapiens, UniProt Q9H0H5); assay: blockers of MgcRacGAP-driven Rac1 GTP hydrolysis – biochemical, ADP Hunter fluorescence, primary and confirmatory, confirmation (AID 624330); type: functional
T1 sequence (Q9H0H5 whole entry): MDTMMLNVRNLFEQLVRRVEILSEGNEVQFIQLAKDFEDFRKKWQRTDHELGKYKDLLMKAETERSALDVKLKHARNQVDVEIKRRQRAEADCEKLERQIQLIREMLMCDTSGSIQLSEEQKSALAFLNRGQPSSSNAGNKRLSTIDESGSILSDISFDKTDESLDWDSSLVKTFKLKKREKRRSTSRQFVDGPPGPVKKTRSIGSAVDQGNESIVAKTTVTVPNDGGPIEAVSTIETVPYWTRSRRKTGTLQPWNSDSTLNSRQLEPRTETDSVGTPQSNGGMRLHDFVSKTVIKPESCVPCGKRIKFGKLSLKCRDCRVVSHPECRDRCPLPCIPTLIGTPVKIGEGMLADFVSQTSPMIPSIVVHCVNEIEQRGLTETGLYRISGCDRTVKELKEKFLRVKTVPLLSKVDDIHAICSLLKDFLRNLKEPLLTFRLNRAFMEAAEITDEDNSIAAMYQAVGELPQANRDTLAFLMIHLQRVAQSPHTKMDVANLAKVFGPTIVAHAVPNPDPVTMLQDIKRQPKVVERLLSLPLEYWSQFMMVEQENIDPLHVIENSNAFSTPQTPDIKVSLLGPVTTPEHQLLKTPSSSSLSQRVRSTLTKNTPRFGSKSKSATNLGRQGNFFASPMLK

[5] = Luminescence Cell-Based Dose Retest to Confirm Inhibitors of Cancer Stem Cells. [Related pubchem assays (depositor defined):AID2717, AID2721]; type: functional; details: Homo sapiens
[6] = reduction of Shn3 3'UTR-driven luciferase in osteoblasts – cell-based, Clone20 osteoblasts, firefly luciferase, cherry-picked, dose response (AID 624132); type: functional;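 further: firefly luciferase luminescence from reporter carrying the Shn3 3'UTR in osteoblasts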
[7] = molecular target: T2, Replicative DNA helicase DnaB (Mycobacterium tuberculosis, UniProt P9WMR3); assay: DnaB intein splicing inhibitors, dose response, biochemical, cell-free fluorescence (AID 449749); type: functional
T2 sequence (P9WMR3 whole entry): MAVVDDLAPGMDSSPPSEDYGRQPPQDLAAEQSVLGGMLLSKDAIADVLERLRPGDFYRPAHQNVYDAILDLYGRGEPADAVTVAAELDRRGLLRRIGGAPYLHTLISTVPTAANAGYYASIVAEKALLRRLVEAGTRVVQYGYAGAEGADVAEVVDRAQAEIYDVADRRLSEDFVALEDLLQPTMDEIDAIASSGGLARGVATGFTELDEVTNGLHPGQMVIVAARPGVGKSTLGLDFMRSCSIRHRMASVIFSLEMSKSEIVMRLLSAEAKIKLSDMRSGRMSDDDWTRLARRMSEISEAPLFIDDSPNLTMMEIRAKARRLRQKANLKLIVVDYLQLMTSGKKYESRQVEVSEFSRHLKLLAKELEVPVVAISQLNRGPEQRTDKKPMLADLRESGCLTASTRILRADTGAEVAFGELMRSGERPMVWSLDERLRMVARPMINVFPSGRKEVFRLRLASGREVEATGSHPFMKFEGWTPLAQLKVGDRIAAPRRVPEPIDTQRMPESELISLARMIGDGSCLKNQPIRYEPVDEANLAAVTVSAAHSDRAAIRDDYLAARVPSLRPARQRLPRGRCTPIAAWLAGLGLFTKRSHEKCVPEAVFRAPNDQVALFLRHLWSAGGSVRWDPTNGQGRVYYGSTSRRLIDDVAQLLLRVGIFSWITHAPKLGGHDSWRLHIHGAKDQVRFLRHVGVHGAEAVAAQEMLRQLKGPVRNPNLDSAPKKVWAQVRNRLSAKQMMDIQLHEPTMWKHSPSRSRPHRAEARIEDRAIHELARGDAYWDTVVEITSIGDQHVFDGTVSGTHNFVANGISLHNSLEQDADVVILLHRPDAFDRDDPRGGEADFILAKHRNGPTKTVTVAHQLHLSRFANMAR

Protein RecA = molecular target: T3, Protein RecA (Mycobacterium tuberculosis, UniProt P9WHJ3); assay: Fluorescence Cell-Free Homogeneous Dose Retest to Identify Inhibitors of RecA-Intein Splicing Activity. [Related pubchem assays (depositor defined):AID2097, AID2223, AID489010, AID492950]; type: functional
T3 sequence (P9WHJ3 whole entry): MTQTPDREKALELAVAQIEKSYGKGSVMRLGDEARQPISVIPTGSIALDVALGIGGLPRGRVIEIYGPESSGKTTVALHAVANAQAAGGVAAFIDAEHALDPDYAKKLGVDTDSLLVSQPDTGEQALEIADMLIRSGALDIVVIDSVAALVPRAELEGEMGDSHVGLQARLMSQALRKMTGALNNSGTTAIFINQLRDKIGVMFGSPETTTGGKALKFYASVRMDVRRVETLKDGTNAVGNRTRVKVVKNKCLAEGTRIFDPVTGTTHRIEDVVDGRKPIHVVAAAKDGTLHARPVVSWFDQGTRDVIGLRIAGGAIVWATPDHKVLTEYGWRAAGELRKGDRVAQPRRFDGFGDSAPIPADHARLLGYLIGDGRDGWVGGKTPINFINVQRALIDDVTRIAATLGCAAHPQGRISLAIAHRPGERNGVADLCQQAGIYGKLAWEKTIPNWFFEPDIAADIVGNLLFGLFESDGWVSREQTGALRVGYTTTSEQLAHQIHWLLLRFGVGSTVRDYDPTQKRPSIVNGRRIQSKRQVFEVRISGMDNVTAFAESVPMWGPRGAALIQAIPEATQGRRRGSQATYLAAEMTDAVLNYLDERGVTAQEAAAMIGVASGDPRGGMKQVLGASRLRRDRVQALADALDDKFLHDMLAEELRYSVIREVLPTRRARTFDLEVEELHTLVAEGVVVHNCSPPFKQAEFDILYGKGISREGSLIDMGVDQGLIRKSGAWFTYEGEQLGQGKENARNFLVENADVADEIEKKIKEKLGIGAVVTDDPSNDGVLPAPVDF

[8] = molecular target: T4, Polyadenylate-binding protein 1 (Homo sapiens, UniProt P11940); assay: MLLE domain peptide-binding blockers, IC50 – biochemical, fluorescence polarization, FITC-PAM2 peptide, dose response (AID 602259); type: functional; details: read-out: IC50_Mean
[9] = molecular target: T4, Polyadenylate-binding protein 1; assay: MLLE binding blockers, Cy5 peptide tracer – biochemical, fluorescence polarization, Cy5-PAM2 peptide, secondary, miRNA deadenylation inhibitor project, dose response (AID 602260); type: functional; details: read-out: IC50_Mean
H9c2 = assay: cells; type: functional, cell-based; details: Rattus norvegicus, H9c2, Myocardium;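 further: confirmatory concentration-response retest of ultra-high-throughput screening hits for modulation of myocardial damage; cell death induced by hydrogen peroxide oxidative stress; compound pretreatment for 60 min then peroxide exposure for 2 h; potency is for protecting the cells against peroxide damage rather than for killing them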
Paired box protein Pax-8 = Paired box protein Pax-8 (Homo sapiens, UniProt Q06710); assay: PAX8 transcriptional activity inhibition in RMG-I – RMG-I cells, luciferase, cherry-pick, dose response (AID 687027); type: functional, cell-based;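 further: luciferase reporter driven by Pax8 target thyroperoxidase promoter measured by SteadyGlo luminescence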
[10] = microbe, parasite or virus in culture; type: functional; details: Mycobacterium tuberculosis
Cytochrome P450 2C9 = Cytochrome P450 2C9 (Homo sapiens, UniProt P11712)
Cytochrome P450 2C9, sequence (P11712 whole entry): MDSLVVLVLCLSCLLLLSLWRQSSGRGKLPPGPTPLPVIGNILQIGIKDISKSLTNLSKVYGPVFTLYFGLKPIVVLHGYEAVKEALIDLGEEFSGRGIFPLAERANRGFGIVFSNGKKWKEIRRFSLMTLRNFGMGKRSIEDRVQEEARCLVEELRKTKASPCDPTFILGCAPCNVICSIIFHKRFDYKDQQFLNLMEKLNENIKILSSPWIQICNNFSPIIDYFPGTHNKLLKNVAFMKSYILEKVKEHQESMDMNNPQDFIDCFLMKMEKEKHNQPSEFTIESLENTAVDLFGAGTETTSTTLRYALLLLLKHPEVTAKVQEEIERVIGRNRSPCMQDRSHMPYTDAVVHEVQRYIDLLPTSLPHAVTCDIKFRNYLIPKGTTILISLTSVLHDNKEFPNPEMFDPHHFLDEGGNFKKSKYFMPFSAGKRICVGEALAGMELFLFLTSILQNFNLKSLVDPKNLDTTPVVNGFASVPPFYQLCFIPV

Luciferin 4-monooxygenase, sequence (P08659 whole entry): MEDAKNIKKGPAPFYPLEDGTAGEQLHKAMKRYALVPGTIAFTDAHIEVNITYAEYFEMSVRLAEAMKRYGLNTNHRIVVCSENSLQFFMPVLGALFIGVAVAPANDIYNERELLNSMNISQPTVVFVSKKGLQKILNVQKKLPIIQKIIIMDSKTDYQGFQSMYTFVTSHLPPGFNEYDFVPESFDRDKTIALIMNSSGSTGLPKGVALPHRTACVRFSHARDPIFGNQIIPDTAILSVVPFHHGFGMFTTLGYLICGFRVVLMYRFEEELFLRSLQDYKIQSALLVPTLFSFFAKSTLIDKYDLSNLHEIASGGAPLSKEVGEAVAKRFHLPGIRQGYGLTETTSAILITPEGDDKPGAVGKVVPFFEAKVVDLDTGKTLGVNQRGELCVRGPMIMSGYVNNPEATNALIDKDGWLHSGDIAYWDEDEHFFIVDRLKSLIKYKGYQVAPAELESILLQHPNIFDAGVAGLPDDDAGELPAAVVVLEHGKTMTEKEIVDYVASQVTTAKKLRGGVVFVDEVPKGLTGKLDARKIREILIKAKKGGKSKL
T4 sequence (P11940 whole entry, the tested form may be a part): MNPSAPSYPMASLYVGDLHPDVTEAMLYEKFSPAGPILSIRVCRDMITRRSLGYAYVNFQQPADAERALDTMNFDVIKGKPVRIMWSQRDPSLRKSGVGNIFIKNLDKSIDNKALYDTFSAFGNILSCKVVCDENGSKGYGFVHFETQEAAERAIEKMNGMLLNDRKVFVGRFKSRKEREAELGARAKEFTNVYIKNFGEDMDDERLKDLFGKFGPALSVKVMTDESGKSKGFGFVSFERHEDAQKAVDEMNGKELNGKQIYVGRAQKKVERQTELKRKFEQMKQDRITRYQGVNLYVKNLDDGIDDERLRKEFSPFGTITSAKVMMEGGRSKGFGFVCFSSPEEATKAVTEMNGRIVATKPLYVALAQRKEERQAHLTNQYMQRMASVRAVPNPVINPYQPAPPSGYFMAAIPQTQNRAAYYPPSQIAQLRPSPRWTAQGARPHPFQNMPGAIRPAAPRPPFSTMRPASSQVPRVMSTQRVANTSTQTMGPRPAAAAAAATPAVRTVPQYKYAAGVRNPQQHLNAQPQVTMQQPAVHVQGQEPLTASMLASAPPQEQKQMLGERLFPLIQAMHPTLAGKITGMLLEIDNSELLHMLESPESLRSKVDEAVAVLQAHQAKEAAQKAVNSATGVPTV
Paired box protein Pax-8, sequence (Q06710 whole entry): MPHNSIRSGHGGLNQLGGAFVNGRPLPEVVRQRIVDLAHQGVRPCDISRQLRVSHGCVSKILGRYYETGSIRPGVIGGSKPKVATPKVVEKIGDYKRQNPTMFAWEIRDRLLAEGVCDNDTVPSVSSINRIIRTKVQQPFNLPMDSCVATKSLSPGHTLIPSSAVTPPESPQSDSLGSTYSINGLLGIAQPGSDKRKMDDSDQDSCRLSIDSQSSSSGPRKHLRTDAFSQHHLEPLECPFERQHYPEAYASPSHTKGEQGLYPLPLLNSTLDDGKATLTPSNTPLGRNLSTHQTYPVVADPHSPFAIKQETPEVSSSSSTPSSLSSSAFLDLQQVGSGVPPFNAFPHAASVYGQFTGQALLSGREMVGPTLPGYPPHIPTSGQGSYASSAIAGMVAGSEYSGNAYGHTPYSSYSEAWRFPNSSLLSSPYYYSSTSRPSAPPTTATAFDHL

COc1ccc(CNC(=O)c2cc(-c3cc(C)cc(C)c3O)[nH]n2)cc1
CC50 [1]: > 50 µM (active)

O=C(CSCc1c(Cl)cccc1Cl)NCc1ccco1
EC50 [2]: > 112 µM (not active) | EC50 [3]: > 112 µM (not active)

COc1ccc(-c2nc(C[S+]([O-])CC(=O)NC3CCCC(C)C3C)c(C)o2)cc1OC (stereo not given)
EC50 [2]: > 112 µM (not active) | EC50 [3]: > 112 µM (not active)

O=C1NC(=S)S/C1=C1\Sc2ccccc2N1CCCS(=O)(=O)O
IC50 [4]: 123 µM (active)

Cc1ncoc1C(=O)Nc1ccc2c(c1)OCCO2
EC50 [2]: 34.3 µM (active) | EC50 [3]: 5.11 µM (active)

O=C(Nc1ccc(O)cc1)c1cc2n(n1)C(C(F)(F)F)CC(c1ccco1)N2 (stereo not given)
IC50 [4]: 27.7 µM (active)

COc1cccc(CN2CCN(Cc3cccc(Oc4ccccc4)c3)CC2)c1OC
IC50 [4]: 93.1 µM (active)

Cc1cc(C)n(C(=O)c2ccc(S(=O)(=O)N3CCCC3)cc2)n1
EC50 [2]: > 112 µM (not active) | EC50 [3]: > 112 µM (not active)

Cc1ccc(CNc2cnn(C34CC5CC(CC(C5)C3)C4)c(=O)c2Cl)cc1
AC50 [5]: 1.18 µM (active)

Cc1cccc(C)c1NC(=O)CN(C)C(=O)c1cc(S(=O)(=O)N(C)C)ccc1N1CCCC1
AC50 [6]: 27.1 µM (active)

CCOc1ccccc1N(C(=O)Nc1ccc(Cl)cc1)C1=NCCS1
AC50 [5]: 5.46 µM (active)

O=C(Nc1ccc(O)cc1)c1ccccc1OCc1ccccc1
IC50 [4]: 30.1 µM (active)

CCOC(=O)NC1(C(F)(F)F)NC(=O)N(Cc2ccco2)C1=O (stereo not given)
EC50 [2]: > 112 µM (not active) | EC50 [3]: > 112 µM (not active)

CN(c1ccccc1)S(=O)(=O)c1cccc(NC(=O)c2cncc(Br)c2)c1
CC50 [1]: 12.4 µM (active)

CCO/C(O)=C1/Sc2ccccc2N=C1C
IC50 [4]: 53.5 µM (active)

O=C(CCl)Nc1ccccc1C(=O)Nc1ccc2c(c1)OCO2
EC50 [2]: > 112 µM (not active) | AC50 [7]: 64.8 µM (active) | EC50 [3]: 27.7 µM (active) | EC50 (Protein RecA): 13 µM (active)

CCOC(=O)C(=O)NNc1ccc(F)cc1
AC50 [5]: 0.837 µM (active)

CCOc1ccccc1N(C(=O)c1snc(C(N)=O)c1N)C(C(=O)NC1CCCC1)c1cccs1 (stereo not given)
IC50 [8]: > 66 µM (inactive) | IC50 [9]: > 66 µM (inactive)

COc1cccc(OC)c1C(=O)N1CCN(Cc2ccc3c(c2)OCO3)CC1
IC50 [4]: 248 µM (active)

Cn1c(=O)c2c(SCc3c(F)cccc3Cl)nc(CC(C)(C)C)nc2n(C)c1=O
CC50 [1]: 30.1 µM (active)

Cc1ccc(Cn2nnc3c(O)nc(C4CCN(S(=O)(=O)c5ccccc5F)CC4)nc32)cc1
CC50 [1]: 22.2 µM (active)

COc1ccc(NC(=O)CN2C(=O)C(c3ccccc3)=NC23CCCCCC3)cc1
EC50 [2]: > 112 µM (not active) | EC50 [3]: > 112 µM (not active)

NC(=O)CC(NC(=O)Cc1ccc(Br)cc1)c1ccc(NC2CC3CCC2C3)c([N+](=O)[O-])c1 (stereo not given)
AC50 [5]: 6.22 µM (active)

CCOc1cc(-c2cc(-c3ccc(N)cc3)nc(N)c2C#N)ccc1O
IC50 [4]: 131 µM (active) | IC50 (H9c2): > 79 µM (inactive)

O=C(Cc1nnc(O)c2ccccc12)NCc1ccc(Cl)cc1
EC50 [2]: > 112 µM (not active) | EC50 [3]: > 112 µM (not active) | IC50 (H9c2): > 79 µM (inactive)

COc1ccccc1NC(=O)C(C)NS(=O)(=O)c1ccccc1 (stereo not given)
EC50 [2]: > 112 µM (not active) | EC50 [3]: > 112 µM (not active)

O=C(Nc1ccccc1Cl)Oc1ccc(-c2ccccc2)cc1
IC50 [4]: 11.3 µM (active)

Cc1cc(NC(=O)/C=C/c2ccc(Cl)cc2)no1
AC50 [5]: 22.8 µM (active)

O=C(NCCCNC(=O)c1nc[nH]c1C(=O)Nc1cccc(Cl)c1)c1nc[nH]c1C(=O)Nc1cccc(Cl)c1
IC50 (H9c2): > 79 µM (inactive) | AC50 [5]: 3.78 µM (active)

COc1ccc(S[C@@H](CCN2CC[C@H](NC(=O)OCc3ccccc3)CCC2=O)c2ccccc2)cc1
AC50 [5]: 3.09 µM (active)

CN(Cc1ccc2c(c1)CCCN2C)C(=O)[C@H]1O[C@@H](n2ccc(=O)[nH]c2=O)[C@H](O)[C@@H]1O
IC50 [8]: > 66 µM (inactive) | IC50 [9]: > 66 µM (inactive)

CCOC1=C2CN(S(=O)(=O)c3ccc(C)cc3)[C@@H](c3ccccc3)C[C@H]2[C@H]2C(=O)N(c3ccccc3)C(=O)[C@H]2C1
IC50 [8]: 51 µM (inactive) | IC50 [9]: > 66 µM (inactive)

C[C@@H]1CCCCO[C@H](CN(C)S(=O)(=O)c2ccc(Cl)cc2)[C@@H](C)CN([C@@H](C)CO)C(=O)c2cc(NC(=O)CCC(F)(F)F)ccc2O1
AC50 (Paired box protein Pax-8): 3.2 µM (active)

C[C@H](CO)N1C[C@H](C)[C@H](CN(C)C(=O)NC2CCCCC2)OCCCC[C@H](C)Oc2ccc(NC(=O)Nc3ccc(C(F)(F)F)cc3)cc2C1=O
AC50 (Paired box protein Pax-8): 6.15 µM (active)

C[C@@H]1CN([C@@H](C)CO)S(=O)(=O)c2ccc(C#Cc3ccccc3F)cc2O[C@H]1CN(C)CC1CCOCC1
AC50 (Paired box protein Pax-8): 10.3 µM (active)

COc1ccc(NC(=O)CC2Sc3ncnn3C2=O)cc1 (stereo not given)
IC50 [8]: > 66 µM (inactive) | IC50 [9]: > 66 µM (inactive)

CC(/C=N/n1c(S)nnc1C1CCCCC1)=C\c1ccccc1
CC50 [10]: > 40 µM (active) | AC50 [5]: 4.26 µM (active)

Nc1nnnn1/N=C/c1cccc(Br)c1
CC50 [1]: > 50 µM (active)

O=C1CCC(c2ccc(-n3ccnc3)cc2)=NN1 [IMAZODAN]
AC50 (Cytochrome P450 2C9): 31.6 µM (inconclusive) | EC50 [2]: > 112 µM (not active) | EC50 [3]: 1.36 µM (active)
